According to patent US7674579B2, “Apoptosis-based evaluation of chemosensitivity in cancer patients” (Yale University, priority 2003, dated 2010):

Key:
[1] = test system: A2780 ovarian cancer cells; test: Western blot for activated caspase-3, A2780 cells; assay type: cell-based, human
Method: (§1) Cells were treated with drug as described above. Cells were then scraped from the culture vessel, pelleted at 2000 rpm at room temperature and lysed in phosphate buffered saline with 1% NP40, 0.1% sodium dodecyl sulfate. After 20 min on ice, debris was removed by centrifugation at 14,000×g at 4° C.
(§2) Protein concentration was determined and 20 μg samples were denatured in sample buffer (2.5% SDS, 10% glycerol, 5% b-mercaptoethanol, 0.15 M Tris (pH 6.8) and 0.01% broinophenol blue) and subjected to 10 or 12% SDS-PAGE. Proteins were transferred to PVDF membranes (Immobilon, Millipore, Bedford, Mass.) at 100V for 105 min.
(§3) Western blots were performed as previously described (32) (28). Antibodies and concentrations were: rabbit anti-actin (Sigma, 1:10,000), rabbit anti-proform caspase-3 (Santa Cruz, Santa Cruz Calif. 1:1000), rabbit anti-cleaved-caspase-3 (CellSignaling, 1:1000). Antibody binding was determined by enhanced chemiluminescence detection of peroxidase conjugated secondary antibodies (Vector).

EOC cells RI82S = test: TUNEL assay, EOC cells R182S; assay type: cell-based, human
Method: (§4) To avoid loss of the apoptotic cells, which detach from monolayer culture and are washed away, cells were cultured in suspension above a one ml layer of 1% agarose per well of a 6-well plate. Two ml of cells at 1×10^5/ml growth medium were placed in each well and incubated at 37° C. with 5% CO2. Plates were agitated gently once per day. After drug exposure for 4 hr, the cells were centrifuged, resuspended in fresh medium and returned to the same wells for 48 hr. Cells were centrifuged at 1000 rpm for 10 min, resuspended in 0.5 ml 10% neutral buffered formalin and incubated at room temperature for 10 min. Centrifugation was repeated and cells were resuspended in 80% ethanol. A 25 μl aliquot was pipeted onto a glass slide and dried at room temperature until no moisture was evident. Cells were calorimetrically stained with TUNEL assay reagents (Trevigen) according to the protocol provided by the manufacturer.

EOC cells S 103 = test: TUNEL assay, EOC cells S103; assay type: cell-based, human; settings: S 103 cells
Method: as §4

EOC R182 cells = test: Western blot for activated caspase-3, EOC R182 cells; assay type: cell-based, human
Method: as §1, §2, §3

CP70 = test: Clonogenic assay, CP70 cell line; assay type: cell-based, human
Method: (§5) Ovarian cancer cell lines HEY (gift from Dr. J M Trent, (26)), A2780 and CP70 (gifts from Dr. T C Hamilton, (27)) were cultured at 37° C. in a 5% CO2 atmosphere. Culture medium varied with the cell line: DME/F12 plus 1% calf serum (HEY); DME/F12 plus 10% FBS, 584 ug/ml L glutamine (A2780 and CP70). All formulations contained 100 μg/ml streptomycin, 62.5 μg/ml penicillin and 2.5 μg/ml amphotericin. Primary cells were cultured in 50% 199 media and 50% MCDB 105 media (Sigma), supplemented with 10% fetal bovine serum (Hyclone, South Logan, Utah), 10 mM HEPES, 0.1 mM MEM non-essential amino acids, 1 mM sodium pyruvate, 100 nM penicili/streptomycin (Gibco) and 4 ng/ml EGF (Sigma). For drug treatments, approximately 1×10^5 cells in exponential growth were sub-cultured in a 25 cm^2 flask per treatment. Carboplatin (Sigma C2538) or paclitaxel (Sigma T7402) was added to the media after the cells reached 60-70% confluence as described in the Results.
Cells were seeded at 600 per 60 mm culture dish and incubated overnight to establish adherence then exposed to varying concentrations of drug for 4 hours. Medium was replaced and incubation was continued for 10-14 days. The cells were washed with 0.9% saline solution then fixed and stained in 72% methanol, 10% formaldehyde, 0.25% crystal violet. Colonies greater than 30 cells were counted. Percent survival was calculated based on the number of colonies in untreated dishes. Each treatment was done at least in duplicate.

A2780 cells = test: Caspase-3 assay (dose response and time course), A2780 cells; assay type: cell-based, human
Method: as §5, with “For drug treatments, approximately 1×10^5 cells in exponential growth were sub-cultured in a 25 cm^2 flask per treatment. Carboplatin (Sigma C2538) or paclitaxel (Sigma T7402) was added to the media after the cells reached 60-70% confluence as described in the Results.” left out
(§6) After drug treatment, cells were lysed and collected in cold 10 mM Tris, pH 7.5, 10 mM Na Phosphate buffer, 130 mM NaCl, 1% Triton X-100, 10 mM Na Pyrophosphate plus freshly added Protease Inhibitor Cocktail (20 μl/ml, Sigma P8340) and 2 MM PMSF. […] Protein concentration was determined by BioRad Protein Assay (BioRad).
(§7) Caspase-3 activity was measured in duplicate from 50 μg cell lysate samples (lysate comprised less than 20% of the total reaction volume)(Promega Corp. CaspACE™ Assay System, Colorimetric). […] Absorbance of the cleaved product was read at 405 nm in a Dynatech MR3000 plate reader. Blank values were subtracted and caspase-3 activity was expressed as the absorbance at 405 nm of the cleaved substrate (pNA). […]

CP70 cells [2] = test: Western blot for activated caspase-3, CP70 cells; assay type: cell-based, human
Method: as §1, §2, §3

[3] = test system: Three established ovarian cancer cell lines and 19 ovarian cancer patient-derived cell samples; test: Caspase-3 assay, distribution of apoptotic response over 22 cases; assay type: cell-based, human; settings: of 22 cases, drugs tested separately
Method: Ovarian cancer cell lines HEY (gift from Dr. J M Trent, (26)), A2780 and CP70 (gifts from Dr. T C Hamilton, (27)) were cultured at 37° C. in a 5% CO2 atmosphere. Culture medium varied with the cell line: […] All formulations contained 100 μg/ml streptomycin, 62.5 μg/ml penicillin and 2.5 μg/ml amphotericin. […] For drug treatments, approximately 1×10^5 cells in exponential growth were sub-cultured in a 25 cm^2 flask per treatment. […] With informed consent from 28 patients undergoing routine procedures at Yale-New Haven Hospital 100 to 200 ml of ascites fluid or pelvic washings were obtained. Epithelial cells were collected as previously described (28). Briefly, samples were centrifuged and the cellular pellet was resuspended in Hank's Balanced Salt Solution (HBSS; Gibco Invitrogen, Carlsbad, Calif.). The suspension was centrifuged at 1500 rpm for 10 mins at room temperature. The pellet was then resuspended in HBSS and layered onto LSM lymphocyte separation medium (ICN Biomedicals Inc, Aurora, Ill.) and centrifuged at 2000 rpm for 25 minutes at room temperature. The mononuclear cell-containing layer was collected and incubated with an anti-CD45 mAb conjugated to magnetic beads (Dynal, Oslo, Norway) at 4° C. with rotation for 30 minutes. Following this incubation, the cells were placed into a magnet and the unbound epithelial cells were collected, washed and placed into culture media. […] Remaining cells were cultured in primary culture medium as described above and evaluated for morphological evidence of malignancy by a pathologist. Viable, malignant cells were isolated from 21 of the 28 samples. In agreement with Lounis et al. (29), any fibroblastic cells in the isolated population disappeared after 2 to 3 passages and cells survived on average for 7 to 8 passages. […] Lysates were incubated on ice for 30 min, mixing every 5 min by gentle vortexing. […] Supernatants were frozen and stored at -70° C. Protein concentration was determined by BioRad Protein Assay (BioRad). […] CaspACETM Assay System, Colorimetric). […] Plates were incubated at 37° C. for 4 hr. Absorbance of the cleaved product was read at 405 nm in a Dynatech MR3000 plate reader. Blank values were subtracted and caspase-3 activity was expressed as the absorbance at 405 nm of the cleaved substrate (pNA). Drug treated samples were compared with samples which had not been treated to give a value called relative activity.

CP70 cells [4] = test: Caspase-3 assay (dose response and time course), CP70 cells; assay type: cell-based, human; settings: CP70, 0.1 μM, 30 hours treatment
Method: as §5, with “For drug treatments, approximately 1×10^5 cells in exponential growth were sub-cultured in a 25 cm^2 flask per treatment. Carboplatin (Sigma C2538) or paclitaxel (Sigma T7402) was added to the media after the cells reached 60-70% confluence as described in the Results.” left out
as §6, §7

A2780 = test: Clonogenic assay, A2780 cell line; assay type: cell-based; settings: Homo sapiens, clonogenic survival, 4 hours drug exposure, 10-14 days
Method: as §5
(§8) Cells were seeded at 600 per 60 mm culture dish and incubated overnight to establish adherence then exposed to varying concentrations of drug for 4 hours. Medium was replaced and incubation was continued for 10-14 days. […] Colonies greater than 30 cells were counted. Percent survival was calculated based on the number of colonies in untreated dishes. […]

HEY = test: Clonogenic assay, HEY cell line; assay type: cell-based, human
Method: as §5, §8

[5] = test system: invasive ovarian carcinoma; settings: of 13 patients
Text: Patients were monitored for disease recurrence based on physical symptoms, physical examination, CA-125 levels and radiologic imaging. Chemosensitivity is defined as no evidence of disease recurrence, based on the above monitoring, within 6 months of completing the chemotherapy regimen of carboplatin and paclitaxel. Sensitivity of six months is commonly used to define which patients are platinum-sensitive in order to direct second-line therapy (30).

## N.N.O=C([O-])C1(C(=O)[O-])CCC1.[Pt+2] [Carboplatin]
[1]; A2780, carboplatin treatment
  expression of the active forms of caspase-3: moderate levels
EOC cells RI82S; 100 μg/ml
  percentage of TUNEL-positive cells: 90%
EOC cells S 103; 100 μg/ml
  percentage of cells that stain for apoptosis (TUNEL): 30.40%
EOC R182 cells; EOC R182, 100 μg/ml for 48 hr
  expression of the active forms of caspase-3: No active forms of caspase-3 are present
CP70; clonogenic IC50, CP70 vs A2780
  resistance of CP70 relative to A2780: about 25 fold
A2780 cells; A2780, 24 hour exposure
  caspase-3 activity: significant caspase-3 activity
A2780 cells; A2780, 48 hour treatment, 100 μg/ml
  caspase-3 activity: Optimal activity
CP70 cells [2]; CP70, 100 μg/ml for 48 hr
  expression of the active forms of caspase-3: No active forms of caspase-3 are present
[3]
  Number of Cases Resistant (no increase of caspase-3 activity): 1
  Number of Cases Sensitive (increased caspase-3 activity relative to untreated samples): 21
[3]; listed as carboplatin
  Number of Cases Resistant (no increase of caspase-3 activity): one

## CC(=O)O[C@H]1C(=O)[C@@]2(C)[C@H]([C@H](OC(=O)c3ccccc3)[C@]3(O)C[C@H](OC(=O)[C@H](O)[C@@H](NC(=O)c4ccccc4)c4ccccc4)C(C)=C1C3(C)C)[C@]1(OC(C)=O)CO[C@@H]1C[C@@H]2O [Paclitaxel]
[1]; A2780, paclitaxel treatment
  expression of the active forms of caspase-3: high levels
CP70 cells [4]
  caspase-3 activity: significant caspase-3 activity
EOC cells RI82S; 0.1 μM
  increase in number of TUNEL-positive cells compared to the untreated controls: 30-40%
EOC cells S 103; 0.1 μM
  increase in number of TUNEL-positive cells compared to the untreated controls: 10-20%
EOC R182 cells; EOC R182, 0.1 μM for 30 hr
  expression of the active forms of caspase-3: no expression of caspase-3 active forms
CP70; CP70 cells, clonogenic assay
  relative response among the three cell lines: most sensitive
CP70; Homo sapiens, CP70, clonogenic survival, 4 hours drug exposure, 10-14 days
  IC50: 18.6 nM
A2780
  IC50: 43.7 nM
CP70 cells [2]; CP70, 0.1 μM for 30 hr
  expression of the active forms of caspase-3: induces the expression of the active forms of caspase-3
[3]
  Number of Cases Resistant (no increase of caspase-3 activity): 12
  Number of Cases Sensitive (increased caspase-3 activity relative to untreated samples): 10
[3]; listed as paclitaxel
  Number of Cases Resistant (no increase of caspase-3 activity): Twelve
  Number of Cases Sensitive (increased caspase-3 activity relative to untreated samples): Ten
HEY; HEY cells, clonogenic assay
  relative response among the three cell lines: most resistant
HEY; Homo sapiens, HEY, clonogenic survival, 4 hours drug exposure, 10-14 days
  IC50: 100 nM

## Carboplatin and Paclitaxel
[5]; no evidence of disease recurrence for 6 months following completion of the regimen
  number of patients clinically responsive (chemo-sensitive): seven
[5]; recurrence within 6 months of completing the regimen
  number of patients chemo-resistant: six
[3]
  Number of Cases Resistant (no increase of caspase-3 activity): 1
  Number of Cases Sensitive (increased caspase-3 activity relative to untreated samples): 10
